{"source": "patent US20070134341A1", "about": "“COMPOSITIONS OF LIPOXYGENASE INHIBITORS” (priority 2005, published 2007)", "origin": "cited, not measured here"}
{"smiles": "CC(c1cc2ccccc2s1)N(O)C(N)=O", "note": "(racemic) [Zileuton, (±)-1-(1-benzo[b]thien-2-ylethyl)-1-hydroxyurea]", "values": [{"measurement": "solubility in acetonitrile", "setting": "acetonitrile", "result": "slightly soluble"}, {"measurement": "solubility in ethanol", "setting": "ethanol", "result": "soluble"}, {"measurement": "solubility in hexane", "setting": "hexane", "result": "practically insoluble"}, {"measurement": "solubility in methanol", "setting": "methanol", "result": "soluble"}, {"measurement": "solubility in water", "setting": "water", "result": "practically insoluble"}, {"measurement": "water solubility", "setting": "water, 25° C.", "result": "80 to 140", "unit": "µg/mL"}]}
